Source: patent US20260250257A1, “ANTIBACTERIAL AND SYNERGISTIC ACTIVE COMPOUND AND USE THEREOF” (EAST CHINA UNIVERSITY OF SCIENCE AND TECHNOLOGY, priority 2023, published 2026)
Converted amounts (≈) assume the structure as drawn.

Columns and labels:
Type in all cases: cell-based
[1] = test system: ATCC13883 strain (Klebsiella pneumoniae); test: Checkerboard antibacterial synergistic activity test with polymyxin E (FIC); parameters: key: FIC≤0.5 synergy; 0.5–1 additive; 1–2 indifferent; ≥2 antagonism; settings: combined with polymyxin E
How it was run: (§1)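 Broth checkerboard synergy with colistin; listed dilutions are working solutions, not final well levels. Overnight incubation, 16 h at 37° C.; FIC ≤0.5 denotes synergy, ≥2 antagonism.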

[2] = test system: ATCC19606 strain (Acinetobacter baumannii); test: as above; parameters: key: FIC≤0.5 synergy; 0.5–1 additive; 1–2 indifferent; ≥2 antagonism; settings: combined with polymyxin E
How it was run: as §1

[3] = test system: ATCC25922 strain (Escherichia coli); test: as above; parameters: key: FIC≤0.5 synergy; 0.5–1 additive; 1–2 indifferent; ≥2 antagonism; settings: combined with polymyxin E
How it was run: as §1

[4] = test system: ATCC9027 strain (Pseudomonas aeruginosa); test: as above; parameters: key: FIC≤0.5 synergy; 0.5–1 additive; 1–2 indifferent; ≥2 antagonism; settings: combined with polymyxin E
How it was run: as §1

[5] = test system: ATCC13883 strain (Klebsiella pneumoniae); test: Broth microdilution, antibacterial activity of the compound used alone; settings: for MIC: read-out: Antibacterial activity of the compound of Formula I, ATCC13883
Description: (§2) The broth microdilution method was used to test the antibacterial effects of the compounds of the present invention against various Gram-negative bacterial strains when used alone.

[6] = test system: ATCC19606 strain (Acinetobacter baumannii); test: as above; settings: for MIC: read-out: Antibacterial activity of the compound of Formula I, ATCC19606
Description: as §2

[7] = test system: ATCC25922 strain (Escherichia coli); test: as above; settings: for MIC: read-out: Antibacterial activity of the compound of Formula I, ATCC25922
Description: as §2

[8] = test system: ATCC9027 strain (Pseudomonas aeruginosa); test: as above; settings: for MIC: read-out: Antibacterial activity of the compound of Formula I, ATCC9027
Description: as §2

MIC [5] [µg/mL] | MIC [6] [µg/mL] | MIC [7] [µg/mL] | MIC [8] [µg/mL] | SMILES | Synergistic activity (FIC value) ATCC13883 [1] | Synergistic activity (FIC value) ATCC19606 [2] | Synergistic activity (FIC value) ATCC25922 [3] | Synergistic activity (FIC value) ATCC9027 [4] | Antibacterial activity of the compound of Formula I, ATCC13883 [5] [µg/mL] | Antibacterial activity of the compound of Formula I, ATCC19606 [6] [µg/mL] | Antibacterial activity of the compound of Formula I, ATCC25922 [7] [µg/mL] | Antibacterial activity of the compound of Formula I, ATCC9027 [8] [µg/mL]
– | – | – | – | COc1ccc(Oc2ccccc2-c2nc(N=C3NCCCN3)sc2C)c(C)c1 [Compound I-144] | 0.16 | 0.03 | 0.18 | 0.28 | 256 | 256 | 256 | 256
– | – | – | – | Oc1c(I)cc(-c2nc(N=C3NCCCN3)sc2Cl)cc1I [Compound I-183] | 1.25 | 0.25 | 1.25 | 0.52 | 256 | 256 | 256 | 256
– | – | – | – | Cc1ccc(Oc2cccc(-c3coc(N=C(N)N)n3)c2)c(C)c1 [Compound I-92] | 0.19 | 0.38 | 0.04 | 0.04 | 256 | 256 | 256 | 256
– | – | – | – | Cc1cccc2cccc(-c3csc(N=C(N)N)n3)c12 [Compound I-57] | 0.25 | 0.3 | 0.5 | 0.63 | 256 | 256 | 256 | 256
– | – | – | – | Cc1ccccc1Oc1cccc(-c2csc(N=C(N)N)n2)c1 [Compound I-91] | 0.19 | 0.04 | 0.26 | 0.52 | 128 | 256 | 128 | 64
– | – | – | – | CC(C)c1ccc(-c2csc(N=C(N)N)n2)cc1 [Compound I-17] | 0.25 | 0.28 | 0.5 | 0.63 | 256 | 256 | 256 | 256
– | – | – | – | NC(N)=Nc1nc(-c2ccccc2Oc2ccccc2Cl)cs1 [Compound I-84] | 0.09 | 0.63 | 0.27 | 0.04 | 256 | 256 | 256 | 256
– | – | – | – | CC(C)c1cc(-c2nc(N=C3NCCCN3)sc2Cl)cc(C(C)C)c1O [Compound I-168] | 0.25 | 0.28 | 0.5 | 0.63 | 256 | 256 | 256 | 256
– | – | – | – | COc1cccc(-c2csc(N=C(N)N)n2)c1 [Compound I-5] | 1.25 | 1.25 | 1.25 | 1.25 | 256 | 256 | 256 | 256
– | – | – | – | CC(=O)c1ccc(-c2csc(N=C(N)N)n2)cc1 [Compound I-24] | 1.25 | 0.5 | 1.25 | 1.25 | 256 | 256 | 256 | 256
– | – | – | – | NC(N)=Nc1nc(-c2c(Br)cc(Br)cc2Br)c(I)o1 [Compound I-53] | 0.25 | 0.28 | 0.5 | 0.63 | 256 | 256 | 256 | 256
– | – | – | – | Cc1cc(C)c2c(-c3csc(N=C(N)N)n3)cccc2c1 [Compound I-61] | 0.63 | 0.75 | 0.5 | 0.56 | 256 | 256 | 256 | 256
– | – | – | – | NC(N)=Nc1nc(-c2ccc(Oc3ccccc3)cc2)cs1 [Compound I-3] | 1.25 | 1.25 | 0.5 | 1.25 | 256 | 256 | 256 | 256
– | – | – | – | CSc1cc2cc(Cl)cc(Cl)n2c1-c1nc(N=C(N)N)sc1Cl [Compound I-130] | 0.16 | 0.03 | 0.18 | 0.28 | 256 | 256 | 256 | 256
– | – | – | – | Clc1sc(N=C2NCCCN2)nc1-c1ccccc1Oc1ccc(I)cc1I [Compound I-148] | 0.09 | 0.31 | 0.14 | 0.06 | 256 | 256 | 256 | 256
– | – | – | – | CS(=O)(=O)Nc1cccc(-c2csc(N=C(N)N)n2)c1 [Compound I-32] | 1.25 | 0.25 | 1.25 | 0.52 | 256 | 256 | 256 | 256
128 (≈ 406 µM) | 256 (≈ 812 µM) | 128 (≈ 406 µM) | 64 (≈ 203 µM) | NC(N)=Nc1nc(-c2cc(OCc3ccccc3)no2)cs1 [Compound I-113] | 1.25 | 1.25 | 0.53 | 1.25 | – | – | – | –
256 (≈ 983 µM) | 256 (≈ 983 µM) | 256 (≈ 983 µM) | 256 (≈ 983 µM) | Cc1cc(C)c(-c2csc(N=C(N)N)n2)c(C)c1 [Compound I-51] | 1.25 | 1.25 | 0.5 | 1.25 | – | – | – | –
– | – | – | – | Clc1cc(Cl)cc(-c2csc(N=C3NCCCN3)n2)c1 [Compound I-187] | 0.31 | 0.25 | 0.56 | 0.5 | 128 | 256 | 128 | 64
